According to PMC12785511, “Integrative Profiling for BBB Permeability Using Capillary Electrochromatography, Experimental Physicochemical Parameters, and Ensemble Machine Learning” (International Journal of Molecular Sciences, 2025):

Columns and labels:
[1] = Sirius T3 automated potentiometric titrations with n-octanol, log P / log D; conditions: for logP / logD: n-octanol/water
[2] = Sirius T3 automated potentiometric (pH-metric) titrations, pKa; conditions: ionic strength adjusted (ISA) water ([…] KCl)
[3] = open-tubular capillary electrochromatography (CEC), permeability k′ parameter; assay type: in vitro ADME; conditions: pH 7.4 HEPES buffer 40 mM, migration times in coated and uncoated capillary, mean ± SD of three independent experiments
[4] = experimental in vivo measurements from rats, data retrieved from literature; cited from earlier work
[5] = pKa ± SD, […] ISA water or Yasuda–Shedlovsky extrapolation from methanol cosolvent, value used for regression

CNCCc1ccccn1 [betahistine]
logP [1]: 0.49 ± 0.01 | logD ([1]; pH 7.4): -1.95 | pKa [2, 5]: 9.84 | k′ ± SD (CEC) [3]: 0.03582 ± 0.00587 | Log BB [4]: −0.30

Cc1nc2n(c(=O)c1CCN1CCC(c3noc4cc(F)ccc34)CC1)CCCC2 [risperidone]
logP [1]: 3.09 ± 0.03 | k′ ± SD (CEC) [3]: 0.00698 ± 0.00377

CN1CCN(CCCN2c3ccccc3Sc3ccc(C(F)(F)F)cc32)CC1 [trifluoperazine]
logP [1]: 6.14 ± 0.01 | logD ([1]; pH 7.4): 5.53 | k′ ± SD (CEC) [3]: 0.2028 ± 0.00151 | Log BB [4]: 1.44

O=C1CC2(CCCC2)CC(=O)N1CCCCN1CCN(c2ncccn2)CC1 [buspirone]
pKa [2, 5]: 7.62

O=C(CCCN1CCC(O)(c2ccc(Cl)cc2)CC1)c1ccc(F)cc1 [haloperidol]
logP [1]: 4.37 ± 0.08 | logD ([1]; pH 7.4): 3.18 | pKa [2, 5]: 8.66 ± 0.08 | k′ ± SD (CEC) [3]: −0.00906 ± 0.00138

Cc1cn([C@H]2C[C@H](N=[N+]=[N-])[C@@H](CO)O2)c(=O)[nH]c1=O [zidovudine]
logP [1]: 0.09 ± 0.01 | logD ([1]; pH 7.4): 0.09 | pKa [2, 5]: 9.51 | k′ ± SD (CEC) [3]: 0.00428 ± 0.00056

CC(=O)Oc1ccccc1C(=O)O [acetylsalicylic acid]
logP [1]: 1.31 ± 0.01 | logD ([1]; pH 7.4): -2.73 | k′ ± SD (CEC) [3]: 0.03441 ± 0.00987 | Log BB [4]: −1.30

O=c1n(CCCN2CCN(c3cccc(Cl)c3)CC2)nc2ccccn12 [trazodone]
logP [1]: 2.98 | logD ([1]; pH 7.4): 2.88 | pKa [2, 5]: 6.83 ± 0.04 | k′ ± SD (CEC) [3]: −0.0108 ± 0.00292 | Log BB [4]: 0.30

CCCCC1C(=O)N(c2ccccc2)N(c2ccccc2)C1=O [phenylbutazone]
k′ ± SD (CEC) [3]: 0.00083 ± 0.00015 | Log BB [4]: −0.52

O=C(c1ccccc1)c1ccc2n1CCC2C(=O)O (stereo not drawn) [ketorolac]
logP [1]: 2.9 ± 0.04 | logD ([1]; pH 7.4): -0.05 | pKa [2, 5]: 3.64 ± 0.06 | k′ ± SD (CEC) [3]: 0.02127 ± 0.00131 | Log BB [4]: −2.00

CN(C)CCCN1c2ccccc2Sc2ccc(Cl)cc21 [chlorpromazine]
logP [1]: 5.1 ± 0.03 | logD ([1]; pH 7.4): 3.43 | pKa [2, 5]: 9.07 ± 0.01

O=C(O)Cc1ccccc1Nc1c(Cl)cccc1Cl [diclofenac]
logP [1]: 4.33 ± 0.01 | logD ([1]; pH 7.4): 1.26 | k′ ± SD (CEC) [3]: 0.00802 ± 0.0032 | Log BB [4]: −1.70

Cc1ccc(/C(=C\CN2CCCC2)c2ccccn2)cc1 [triprolidine]
logP [1]: 3.87 ± 0.01 | Log D7.4 ([1]; pH 7.4, calculated based on the experimentally obtained pKa and log P data): 1.88 | pKa [2, 5]: 9.39 ± 0.06 | k′ ± SD (CEC) [3]: 0.01006 ± 0.00233 | Log BB [4]: 0.78

CNCCCN1c2ccccc2CCc2ccccc21 [desipramine]
k′ ± SD (CEC) [3]: −0.01523 ± 0.00343 | Log BB [4]: 1.20

CN1CCN(C2=Nc3cc(Cl)ccc3Nc3ccccc32)CC1 [clozapine]
logP [1]: 3.92 ± 0.1 | logD ([1]; pH 7.4): 3.52 | k′ ± SD (CEC) [3]: 0.00693 ± 0.00245 | Log BB [4]: 0.60

C=C[C@H]1C[N@@]2CC[C@H]1C[C@@H]2[C@@H](O)c1ccnc2ccc(OC)cc12 [quinidine]
k′ ± SD (CEC) [3]: 0.0034 ± 0.0004 | Log BB [4]: 0.33

CN(C)CCCC1(c2ccc(F)cc2)OCc2cc(C#N)ccc21 (stereo not drawn) [citalopram]
k′ ± SD (CEC) [3]: 0.00405 ± 0.00229 | Log BB [4]: 0.48

OCCOCCN1CCN(C(c2ccccc2)c2ccc(Cl)cc2)CC1 (stereo not drawn) [hydroxyzine]
logP [1]: 3.73 ± 0.03 | logD ([1]; pH 7.4): 3.34 | pKa [2, 5]: 7.66 ± 0.04 | k′ ± SD (CEC) [3]: −0.00058 ± 0.00031 | Log BB [4]: 0.90

CN(C)CCc1c[nH]c2ccc(C[C@H]3COC(=O)N3)cc12 [zolmitriptan]
logP [1]: 1.19 ± 0.01 | logD ([1]; pH 7.4): -1.01 | pKa [2, 5]: 9.6 ± 0.05 | k′ ± SD (CEC) [3]: −0.00882 ± 0.00356 | Log BB [4]: −1.40

O=C(CCCN1CCC(O)(c2ccc(Br)cc2)CC1)c1ccc(F)cc1 [bromperidol]
logP [1]: 3.87 ± 0.05 | logD ([1]; pH 7.4): 2.81 | pKa [2, 5]: 8.45 ± 0.1 | k′ ± SD (CEC) [3]: −0.00795 ± 0.00034 | Log BB [4]: 1.38

COc1ccc(C(CN(C)C)C2(O)CCCCC2)cc1 (stereo not drawn) [venlafaxine]
logP [1]: 2.97 | logD ([1]; pH 7.4): 0.7 | pKa [2, 5]: 9.67 ± 0.02 | k′ ± SD (CEC) [3]: −0.01411 ± 0.00205 | Log BB [4]: 0.48

OCCN1CCN(CCCN2c3ccccc3Sc3ccc(C(F)(F)F)cc32)CC1 [fluphenazine]
logP [1]: 5.12 ± 0.06 | logD ([1]; pH 7.4): 4.58 | pKa [2, 5]: 7.79 ± 0.07 | k′ ± SD (CEC) [3]: 0.111 ± 0.00192 | Log BB [4]: 1.51

CN(C)CCCN1c2ccccc2Sc2ccccc21 [promazine]
logP [1]: 4.54 | logD ([1]; pH 1): 0.83 | logD ([1]; pH 1.2): 0.83 | logD ([1]; pH 2): 0.83 | logD ([1]; pH 3): 0.83 | logD ([1]; pH 4): 0.84 | logD ([1]; pH 5): 0.91 | logD ([1]; pH 6): 1.32 | logD ([1]; pH 6.5): 1.71 | logD ([1]; pH 7): 2.17 | logD ([1]; pH 7.4): 2.55 | logD ([1]; pH 8): 3.14 | logD ([1]; pH 9): 4 | logD ([1]; pH 10): 4.45 | logD ([1]; pH 11): 4.53 | logD ([1]; pH 12): 4.54 | pKa [2, 5]: 9.39 | k′ ± SD (CEC) [3]: −0.01399 ± 0.00228 | Log BB [4]: 1.23

CNCCC=C1c2ccccc2CCc2ccccc21 [nortriptyline]
logP [1]: 4.29 ± 0.01 | logD ([1]; pH 7.4): 1.79 | pKa [2, 5]: 10.05 ± 0.03 | k′ ± SD (CEC) [3]: −0.01133 ± 0.0021 | Log BB [4]: 1.04

O=C(O)c1ccccc1O [salicylic acid]
logP [1]: 2.31 ± 0.01 | logD ([1]; pH 7.4): -0.98 | k′ ± SD (CEC) [3]: 0.02255 ± 0.00676

COc1ccc2cc([C@H](C)C(=O)O)ccc2c1 [naproxen]
k′ ± SD (CEC) [3]: 0.0105 ± 0.0046 | Log BB [4]: −1.70

CC(C)NCC(O)COc1cccc2ccccc12 (stereo not drawn) [propranolol]
k′ ± SD (CEC) [3]: 0.00202 ± 0.00061 | Log BB [4]: 0.85

CCN(CC)CCNC(=O)c1cc(Cl)c(N)cc1OC [metoclopramide]
k′ ± SD (CEC) [3]: −0.00563 ± 0.00136 | Log BB [4]: 0.08

CC(C)Cc1ccc(C(C)C(=O)O)cc1 (stereo not drawn) [ibuprofen]
logP [1]: 3.8 | logD ([1]; pH 7.4): 1.07 | k′ ± SD (CEC) [3]: −0.0369 ± 0.00011

Fc1ccc([C@@H]2CCNC[C@H]2COc2ccc3c(c2)OCO3)cc1 [paroxetine]
logP [1]: 3.39 ± 0.04 | pKa [2, 5]: 9.76 ± 0.08 | k′ ± SD (CEC) [3]: 0.02144 ± 0.00689 | Log BB [4]: 0.48

CSc1ccc2c(c1)N(CCC1CCCCN1C)c1ccccc1S2 (stereo not drawn) [thioridazine]
logP [1]: 5.38 ± 0.03 | logD ([1]; pH 7.4): 3.54 | pKa [2, 5]: 9.25 ± 0.01 | Log BB [4]: 0.24

CNC(=C[N+](=O)[O-])NCCSCc1ccc(CN(C)C)o1 [ranitidine]
logP [1]: 0.34 ± 0.02 | logD ([1]; pH 7.4): -0.75 | pKa [2, 5]: 8.43 ± 0.01 | k′ ± SD (CEC) [3]: −0.00256 ± 0.00041 | Log BB [4]: −1.23

COc1ccc(CN(CCN(C)C)c2ccccn2)cc1 [mepyramine]
logP [1]: 2.73 ± 0.02 | logD ([1]; pH 7.4): 1.48 | pKa [2, 5]: 8.71 ± 0.05

C[C@H]1COc2c(N3CCN(C)CC3)c(F)cc3c(=O)c(C(=O)O)cn1c23 [levofloxacin]
logP [1]: 0.82 ± 0.01 | logD ([1]; pH 7.4): 0.77 | Log BB [4]: −0.70

CN(C)CCCN1c2ccccc2CCc2ccccc21 [imipramine]
Log BB [4]: 1.30

CC(C)NCC(O)COc1cccc2[nH]ccc12 (stereo not drawn) [pindolol]
pKa [2]: 9.62 ± 0.07 | Log BB [4]: 0.30

CN1[C@@H]2CC[C@H]1C[C@@H](OC(=O)C(CO)c1ccccc1)C2 (stereo partly drawn) [atropine]
k′ ± SD (CEC) [3]: 0.0044 ± 0.00309

CC(C)NCC(O)COc1ccc(CC(N)=O)cc1 (stereo not drawn) [atenolol]
k′ ± SD (CEC) [3]: 0.00183 ± 0.00051

Clc1cccc(Cl)c1N=C1NCCN1 [clonidine]
pKa [2]: 8.12 ± 0.01 | k′ ± SD (CEC) [3]: 0.00321 ± 0.00046 | Log BB [4]: 0.11

COc1ccc2c(c1)c(CC(=O)O)c(C)n2C(=O)c1ccc(Cl)cc1 [indomethacin]
logP [1]: 6.31 ± 0.12 | logD ([1]; pH 7.4): 3.92 | k′ ± SD (CEC) [3]: 0.01869 ± 0.00624 | Log BB [4]: −1.26
